US5998648A, “Anticancer (IV) complexes for oral administration and a method of making the same” (Korea Institute of Science and Technology, priority 1997, dated 1999)

How the values were obtained:
L1210 leukemia = test: Oral anticancer activity (survival time of L1210 leukemia-implanted BDF1 mice); format: in vivo, BDF1 mice; L1210 cells from DBA/2 mice; conditions: for Increase ratio in the survival time (T/C, %): Dose 150 mg/kg, daily for consecutive five days, L1210 implanted intraperitoneally
Method: The oral anticancer activity of the hexa-coordinate platinum(IV) complexes of the present invention was evaluated as follows. A group of eight 6-week old BDF1 mice was employed to test for each compound. 1×10^5 cells of L1210 leukemia in ascitic fluid from DBA/2 mice were implanted intraperitoneally in each mouse. The test solutions containing platinum(IV) complexes at different concentrations were orally administered daily for consecutive five days. The survival time of each group of the mice was recorded. The percent increase in the survival time as compared to the control group, T/C (%), was calculated as an indicator of the anticancer activity. The results are summarized in Table I. Drugs that have more than 125% of the T/C (%) values can be considered as efficient anticancer drugs. […] It is expected that the complex in Example 1 could be practically applicable since the acute toxicity was also low (LD50 =300 mg/kg)

Acute toxicity = format: in vivo

Row | Compound | anticancer activity (in words) (L1210 leukemia) | Increase ratio in the survival time (T/C, %) (L1210 leukemia) [%] | acute toxicity / toxicity (in words) (Acute toxicity; in vivo) | acute toxicity LD50 (Acute toxicity; species and route not given) [mg/kg]
1 | CCC(=O)[O][Pt]([O]C(=O)CC)([O]C(=O)CC)[O]C(=O)CC.NC1CCCCC1N [Example 1] | excellent anticancer activity | 160.9 | low | 300
2 | CCCC(=O)[O][Pt]1([O]C(=O)CCC)([O]C(=O)CCC)([O]C(=O)CCC)[NH]C2CCCCC2[NH]1 (stereo not drawn) [Example 2] |  | 139.1 |  | 
3 | CCCC(=O)[O][Pt]1([O]C(=O)CCC)([O]C(=O)CCC)([O]C(=O)CCC)[NH]CC[NH]1 [Example 4, (NH2 CH2 CH2 NH2)Pt(OOCC3 H7)4] |  | 115.4 |  | 
4 | [OH][Pt]1([OH])([OH])([OH])[NH]C2CCCCC2[NH]1 (stereo not drawn) [compound 1, (DACH)Pt(OH)4, reference compound] |  | 108.8 |  | 
5 | (DACH)PtCl2 (OAc)4 [compound 2, reference compound] |  | 103.1 |  | 
6 | [NH2 CH2 C(CH3)2 CH2 NH2 ]Pt(OOCC2 H5)4 [Example 6] |  | 130.8 |  | 
